In patent publication US7838695B2, “Neuroactive substance and uses of one such substance” (Universite de Nantes, priority 2003, dated 2010):
“Also recorded” adds a separate entry of the source.

Assays:
[1] = system: maintained LVA calcium channels (mLVA); assay: mLVA calcium current in DUM neurons in the presence of nickel chloride (patch-clamp); assay type: cell-based, Periplaneta americana; details: in the presence of 100 μm nickel chloride
[2] = system: Phormia terrae novae larvae; assay: Neuroactivity test by injection in Diptera larvae; assay type: in vivo
Experimental: The neuroactivity of the substance according to formula (I) was then tested by injecting in Diptera larvae. Within this scope, the inventors used Phormia terrae novae species Cyloraphe larvae at larval stage III, just before the imago stage enabling metamorphosis to a pupa or nymph. […] The product is injected using a precision micro-syringe fitted with a bevelled hypodermic needle. The needle is inserted into the last abdominal segment of the animal on the dorsal side. The injection is deemed successful if the larva is still mobile at the tip of the needle. In this type of test, contraction or relaxation for at least 5 seconds is defined as a positive response, but the intensity and duration are dose-dependent while the absence of any symptom for 10 min represents a negative response. Substance (II) was tested by injecting a single 350 μg dose of product per larva (mean larva weight 70 mg), by injecting 7 A1 of a 50 mg/ml solution of the product in the 85-15 v/v water:DMSO mixture. This concentration was then diluted by half until no larval activity was detected.

[3] = system: axonal cockroach sodium and potassium channels; assay: Isolated giant axon under imposed potential and imposed current; assay type: cell-based, Periplaneta americana
Experimental: Firstly, the neuronal sodium and potassium channels were studied. These channels are involved in action potential generation. This study was conducted on cockroach (Periplaneta americana) giant axons. The giant axon of these cockroaches was isolated in ventral abdominal nerve chain connective tissue. During the experiment, the axon is immersed in physiological fluid. The experiment is performed under imposed potential and imposed current in the absence and presence of the substance according to formula (II).

[4] = system: cockroach DUM neurons; assay: Electrical activity of DUM neurons activated by injecting depolarising current; assay type: cell-based, Periplaneta americana
Experimental: A second experiment was conducted on dorsal unpaired median neurons (DUM neurons) from the central nervous system of cockroaches (Periplaneta americana). In particular, these neurons secrete a biogenous amine, octopamine, a neuromediator wherein the chemical structure is similar to […] in vertebrates. They represent a good study model as they display electrophysiological properties similar to those of dopaminergic neurons in vertebrates. These DUM neurons are isolated from the medio-dorsal line of the last terminal abdominal ganglion of the nerve chain of adult male cockroaches, by means of enzyme digestion and mechanical dissociation, according to the technique described by […] et al (J. Exp. Biol., 1989, 144; 535-549). The neurons isolated in this way are kept in culture at 29° C. for 24 hrs before testing. The whole cell configuration patch-clamp technique is used to measure the electrical activity and the calcium currents (imposed potential and/or current conditions) according to the model described by Grolleau and […]. Neurophysiol. 1995, 73; 160-171). Experiments were also conducted on an electrical activity activated by injecting a level of depolarising current controlled in amplitude and duration (FIG. 6). The results obtained under these conditions are in agreement with the experiments conducted on spontaneous activity. […]

[5] = system: high voltage activated calcium channels (HVA); assay: HVA calcium current in DUM neurons (patch-clamp); assay type: cell-based, Periplaneta americana
[6] = system: low voltage activated calcium channels (LVA); assay: Overall LVA calcium current in DUM neurons (patch-clamp); assay type: cell-based, Periplaneta americana; details: +50 mV depolarising pulse from −100 mV reference potential
[7] = system: transient LVA calcium channels (tLVA); assay: tLVA calcium current in DUM neurons (overall LVA minus mLVA); assay type: cell-based, Periplaneta americana
[8] = system: cockroach DUM neurons; assay: Spontaneous pacemaker electrical activity of DUM neurons (whole cell patch-clamp); assay type: cell-based, Periplaneta americana
Experimental: A second experiment was conducted on dorsal unpaired median neurons (DUM neurons) from the central nervous system of cockroaches (Periplaneta americana). In particular, these neurons secrete a biogenous amine, octopamine, a neuromediator wherein the chemical structure is similar to […] in vertebrates. They represent a good study model as they display electrophysiological properties similar to those of dopaminergic neurons in vertebrates. These DUM neurons are isolated from the medio-dorsal line of the last terminal abdominal ganglion of the nerve chain of adult male cockroaches, by means of enzyme digestion and mechanical dissociation, according to the technique described by […] et al (J. Exp. Biol., 1989, 144; 535-549). The neurons isolated in this way are kept in culture at 29° C. for 24 hrs before testing. The whole cell configuration patch-clamp technique is used to measure the electrical activity and the calcium currents (imposed potential and/or current conditions) according to the model described by Grolleau and […]. Neurophysiol. 1995, 73; 160-171).

CC(=O)O[C@@H]1CC[C@@]23O[C@@H]2[C@H](O)C[C@@H](C)[C@]3(C)[C@@H]1C(C)=O [substance according to formula (II), 6S-acetyl-4R,5R-dimethyl-1R(10S)-epoxy-2R-hydroxy-7R-acetoxydecahydronaphthalene]
amplitude of the mLVA current [1]: neither the amplitude of the mLVA current (FIGS. 10 and 11) or that of HVA are modified | MAC ([2]; calculated with molecular weight 296 g per mole): approximately 1 mM/mg of larvae | minimum active concentration on diptera larvae ([2]; injection into larvae, halving dilutions until no larval activity): 3.1 μg per μl and per 10 mg of larvae | activity on axonal sodium and potassium channels (change on the action potential) [3]: no activity | action potential amplitude or duration [4]: No change | discharge frequency [4]: increase in the discharge frequency | reduction of HVA calcium current amplitude ([5]; +90 mV depolarising pulse from −100 mV reference potential, n=7): 9% | amplitude of the HVA current ([5]; in the presence of 100 μm nickel chloride): neither the amplitude of the mLVA current (FIGS. 10 and 11) or that of HVA are modified | maintained component measured at the end of the depolarising pulse [6]: not affected | increase of amplitude of the overall LVA calcium current ([6]; n=7): 81% | action on tLVA calcium channel [7]: specific activator; also recorded: specific action; also recorded: potentiating | action potential amplitude ([8]; 4-AP 2 mM): remains unchanged | post-hyperpolarisation phase ([8]; 4-AP 2 mM): increased | pre-depolarisation slope ([8]; 4-AP 2 mM): higher | action potential frequency increased by a factor ([8]; 100 μm substance, in the presence of 4-AP 2 mM): 2.1
